# Test results: the SangsterLogP compilation
row,logP,Compound
1,2.86,CCSC(C(=O)O)=C1SC(C(=O)NC2(OC)C(=O)N3C(C(=O)O)=C(CSc4nnnn4C)CSC32)S1 (stereo unspecified)
2,2.6,COC1(NC(=O)C2SC(=C(SC)C(=O)O)S2)C(=O)N2C(C(=O)O)=C(CSc3nnnn3C)CSC21 (stereo unspecified)
3,2,COC(C(=O)O)=C1SC(C(=O)NC2(OC)C(=O)N3C(C(=O)O)=C(CSc4nnnn4C)CSC32)S1 (stereo unspecified)
4,1.43,COC1(NC(=O)CSc2snc(O)c2C(=O)O)C(=O)N2C(C(=O)O)=C(CSc3nnnn3C)CSC21 (stereo unspecified)
5,2.01,COC1(NC(=O)C2SC(C(C(=O)O)C(=O)N(C)C)S2)C(=O)N2C(C(=O)O)=C(CSc3nnnn3C)CSC21 (stereo unspecified)
6,1.25,COC1(NC(=O)C2SC(=C(C(=O)O)S(N)(=O)=O)S2)C(=O)N2C(C(=O)O)=C(CSc3nnnn3C)CSC21 (stereo unspecified)
7,1.82,CNC(=O)C(C(=O)O)=C1SC(C(=O)NC2(OC)C(=O)N3C(C(=O)O)=C(CSc4nnnn4C)CSC32)S1 (stereo unspecified)
8,2.19,COC1(NC(=O)C2SC(=CC(=O)O)S2)C(=O)N2C(C(=O)O)=C(CSc3nnnn3C)CSC21 (stereo unspecified)
9,2.66,COC1(NC(=O)C2SC(=C(C)C(=O)O)S2)C(=O)N2C(C(=O)O)=C(CSC3=NN=NN(C)C3)CSC21 (stereo unspecified)
10,2.98,COC1(NC(=O)C2SC(C(C(=O)O)C(=O)c3ccccc3)S2)C(=O)N2C(C(=O)O)=C(CSc3nnnn3C)CSC21 (stereo unspecified)
11,1.73,COC1(NC(=O)C2SC(=C(C#N)C(=O)O)S2)C(=O)N2C(C(=O)O)=C(CSc3nnnn3C)CSC21 (stereo unspecified)
